# Reference: US10745365B2, “Luminogenic and fluorogenic compounds and methods to detect molecules or conditions” (Promega Corporation, priority 2005, dated 2020)
# Legend:
# beta-glucuronidase (GUS) = molecular target: T1, beta-glucuronidase (GUS) (Homo sapiens, UniProt P08236); assay: Beta-glucuronidase (GUS) assay; assay type: biochemical
# T1 construct: purchased Sigma-Aldrich
# T1 sequence (P08236 23-651): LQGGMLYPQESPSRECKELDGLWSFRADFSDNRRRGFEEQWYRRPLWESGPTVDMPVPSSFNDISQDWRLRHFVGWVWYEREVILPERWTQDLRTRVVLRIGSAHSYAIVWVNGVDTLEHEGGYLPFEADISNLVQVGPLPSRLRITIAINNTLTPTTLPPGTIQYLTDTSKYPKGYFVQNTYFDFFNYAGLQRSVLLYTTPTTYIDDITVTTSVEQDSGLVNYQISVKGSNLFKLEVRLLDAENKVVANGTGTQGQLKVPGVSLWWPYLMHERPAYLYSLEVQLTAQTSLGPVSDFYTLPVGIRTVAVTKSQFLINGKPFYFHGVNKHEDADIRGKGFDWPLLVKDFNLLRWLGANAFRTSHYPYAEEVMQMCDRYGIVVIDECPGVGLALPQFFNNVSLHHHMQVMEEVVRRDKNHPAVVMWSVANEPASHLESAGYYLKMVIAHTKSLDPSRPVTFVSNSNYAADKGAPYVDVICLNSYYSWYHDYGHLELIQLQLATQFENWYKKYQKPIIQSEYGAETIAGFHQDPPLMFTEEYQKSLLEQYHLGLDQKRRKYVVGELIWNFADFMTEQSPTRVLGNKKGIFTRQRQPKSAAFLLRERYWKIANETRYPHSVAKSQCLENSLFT
# Procedure: The source of the human enzyme was Sigma-Aldrich. GUS was incubated with the substrate in 50 mM MES, pH 6.3, for 15 minutes.
# GST M1-1 = molecular target: T2, GST M1-1 (Homo sapiens, UniProt P09488, K173N); assay: Luminescent GST assay with GST M1-1; assay type: biochemical; settings: light generating reaction
# T2 construct: purchased Sigma
# T2 sequence (P09488 1-218 K173N): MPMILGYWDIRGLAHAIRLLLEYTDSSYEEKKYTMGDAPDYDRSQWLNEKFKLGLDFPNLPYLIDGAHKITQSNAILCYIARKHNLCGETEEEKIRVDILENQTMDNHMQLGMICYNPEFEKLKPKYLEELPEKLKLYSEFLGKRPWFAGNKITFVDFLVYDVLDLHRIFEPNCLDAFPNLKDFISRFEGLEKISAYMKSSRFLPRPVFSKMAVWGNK
Compound,"signal-to-noise, fluorescence (beta-glucuronidase (GUS); [GUS] 4.3 ng/ml)","signal-to-noise, fluorescence (beta-glucuronidase (GUS); [GUS] 8.7 ng/ml)","signal-to-noise, fluorescence (beta-glucuronidase (GUS); [GUS] 34.7 ng/ml)","signal-to-noise, fluorescence (beta-glucuronidase (GUS); [GUS] 69.4 ng/ml)","signal-to-noise, fluorescence (beta-glucuronidase (GUS); [GUS] 138.8 ng/ml)","signal-to-noise, fluorescence (beta-glucuronidase (GUS); [GUS] 277.5 ng/ml)",GST preference (GST M1-1)
Cc1cc(=O)oc2cc(O[C@@H]3O[C@H](C(=O)O)[C@@H](O)[C@H](O)[C@H]3O)ccc12 [4-methylumbelliferyl glucuronide],7.5,15.6,76.5,164.6,376.8,861.4,–
"COC(=O)[C@H]1CSC(c2ccc3cc(Oc4ccc(C(F)(F)F)cc4[N+](=O)[O-])ccc3n2)=N1 [GST-4, Methyl 6-(2-nitro-4-trifluoromethyl-phenoxy)quinolinyl-luciferin ester]",–,–,–,–,–,–,better substrate for GST M1-1 in a light generating reaction than GST A1-1
